Columns and labels:
DoTc2-4510 = experiment: cells; type: functional, cell-based; settings: Homo sapiens
EFM-19 = experiment: cells; type: functional, cell-based; settings: Homo sapiens
Description: SANGER: Inhibition of human EFM-19 cell growth in a cell viability assay.

GCT = experiment: cells; type: functional, cell-based; settings: Homo sapiens
Description: SANGER: Inhibition of human GCT cell growth in a cell viability assay.

HCC1419 = experiment: cells; type: functional, cell-based; settings: Homo sapiens
Description: SANGER: Inhibition of human HCC1419 cell growth in a cell viability assay.

HT-1376 = experiment: cells; type: functional, cell-based; settings: Homo sapiens
Description: SANGER: Inhibition of human HT-1376 cell growth in a cell viability assay.

HTC-C3 = experiment: cells; type: functional, cell-based; settings: Homo sapiens
Description: SANGER: Inhibition of human HTC-C3 cell growth in a cell viability assay.

HuCCT-1 = experiment: cells; type: functional, cell-based, HuCCT1; settings: Homo sapiens
Description: SANGER: Inhibition of human HuCCT1 cell growth in a cell viability assay.

KP-4 = experiment: cells; type: functional, cell-based; settings: Homo sapiens
Description: SANGER: Inhibition of human KP-4 cell growth in a cell viability assay.

KYSE-180 = experiment: cells; type: functional, cell-based; settings: Homo sapiens
Description: SANGER: Inhibition of human KYSE-180 cell growth in a cell viability assay.

KYSE-410 = experiment: cells; type: functional, cell-based; settings: Homo sapiens
Description: SANGER: Inhibition of human KYSE-410 cell growth in a cell viability assay.

KYSE-70 cell line = experiment: cells; type: functional, cell-based; settings: Homo sapiens
Description: SANGER: Inhibition of human KYSE-70 cell growth in a cell viability assay.

LCLC-103H cell line = experiment: cells; type: functional, cell-based; settings: Homo sapiens
Description: SANGER: Inhibition of human LCLC-103H cell growth in a cell viability assay.

LCLC-97TM1 = experiment: cells; type: functional, cell-based; settings: Homo sapiens
Description: SANGER: Inhibition of human LCLC-97TM1 cell growth in a cell viability assay.

LoVo = experiment: cells; type: functional, cell-based; settings: Homo sapiens
Description: SANGER: Inhibition of human LoVo cell growth in a cell viability assay.

MCF7 = experiment: cells; type: functional, cell-based; settings: Homo sapiens
Description: SANGER: Inhibition of human MCF7 cell growth in a cell viability assay.

MEL-HO = experiment: cells; type: functional, cell-based; settings: Homo sapiens
Description: SANGER: Inhibition of human MEL-HO cell growth in a cell viability assay.

NCI-H1755 = experiment: cells; type: functional, cell-based; settings: Homo sapiens
Description: SANGER: Inhibition of human NCI-H1755 cell growth in a cell viability assay.

NCI-H1793 = experiment: cells; type: functional, cell-based; settings: Homo sapiens
Description: SANGER: Inhibition of human NCI-H1793 cell growth in a cell viability assay.

NCI-H2087 = experiment: cells; type: functional, cell-based; settings: Homo sapiens
Description: SANGER: Inhibition of human NCI-H2087 cell growth in a cell viability assay.

NCI-H2228 = experiment: cells; type: functional, cell-based; settings: Homo sapiens
Description: SANGER: Inhibition of human NCI-H2228 cell growth in a cell viability assay.

NCI-H2342 = experiment: cells; type: functional, cell-based; settings: Homo sapiens
Description: SANGER: Inhibition of human NCI-H2342 cell growth in a cell viability assay.

OVCAR-3 = experiment: cells; type: functional, cell-based; settings: Homo sapiens
Description: SANGER: Inhibition of human OVCAR-3 cell growth in a cell viability assay.

P12-Ichikawa = experiment: cells; type: functional, cell-based; settings: Homo sapiens
PC-3 = experiment: cells; type: functional, cell-based; settings: Homo sapiens
Description: SANGER: Inhibition of human PC-3 cell growth in a cell viability assay.

SK-LU-1 = experiment: cells; type: functional, cell-based; settings: Homo sapiens
Description: SANGER: Inhibition of human SK-LU-1 cell growth in a cell viability assay.

SK-MES-1 = experiment: cells; type: functional, cell-based; settings: Homo sapiens
Description: SANGER: Inhibition of human SK-MES-1 cell growth in a cell viability assay.

SK-OV-3 = experiment: cells; type: functional, cell-based; settings: Homo sapiens
Description: SANGER: Inhibition of human SK-OV-3 cell growth in a cell viability assay.

SNU-387 = experiment: cells; type: functional, cell-based; settings: Homo sapiens
Description: SANGER: Inhibition of human SNU-387 cell growth in a cell viability assay.

SW13 = experiment: cells; type: functional, cell-based; settings: Homo sapiens
Description: SANGER: Inhibition of human SW13 cell growth in a cell viability assay.

A-427 = experiment: cells; type: functional, cell-based; settings: Homo sapiens
Description: SANGER: Inhibition of human A427 cell growth in a cell viability assay.

A673 = experiment: cells; type: functional, cell-based; settings: Homo sapiens
Description: SANGER: Inhibition of human A673 cell growth in a cell viability assay.

ABC-1 = experiment: cells; type: functional, cell-based; settings: Homo sapiens
Description: SANGER: Inhibition of human ABC-1 cell growth in a cell viability assay.

BT-20 = experiment: cells; type: functional, cell-based; settings: Homo sapiens
Description: SANGER: Inhibition of human BT-20 cell growth in a cell viability assay.

BXPC-3 = experiment: cells; type: functional, cell-based; settings: Homo sapiens
Description: SANGER: Inhibition of human BxPC-3 cell growth in a cell viability assay.

CAKI-1 = experiment: cells; type: functional, cell-based; settings: Homo sapiens
Description: SANGER: Inhibition of human CAKI-1 cell growth in a cell viability assay.

CAL-120 = experiment: cells; type: functional, cell-based; settings: Homo sapiens
Description: SANGER: Inhibition of human CAL-120 cell growth in a cell viability assay.

U-251 = experiment: cells; type: functional, cell-based; settings: Homo sapiens
Description: SANGER: Inhibition of human U251 cell growth in a cell viability assay.

UMUC3 = experiment: cells; type: functional, cell-based; settings: Homo sapiens
Description: SANGER: Inhibition of human UM-UC-3 cell growth in a cell viability assay.

UMC-11 = experiment: cells; type: functional, cell-based; settings: Homo sapiens
Description: SANGER: Inhibition of human UMC-11 cell growth in a cell viability assay.

YAPC = experiment: cells; type: functional, cell-based; settings: Homo sapiens
Description: SANGER: Inhibition of human YAPC cell growth in a cell viability assay.

D-542MG = experiment: cells; type: functional, cell-based; settings: Homo sapiens
Description: SANGER: Inhibition of human D-542MG cell growth in a cell viability assay.

DG-75 = experiment: cells; type: functional, cell-based, Homo sapiens; settings: Homo sapiens, DG-75
Description: SANGER: Inhibition of human DG-75 cell growth in a cell viability assay.

DMS-153 = experiment: cells; type: functional, cell-based, Homo sapiens; settings: Homo sapiens, DMS-153
Description: SANGER: Inhibition of human DMS-153 cell growth in a cell viability assay.

Daudi = experiment: cells; type: functional, cell-based, Homo sapiens; settings: Homo sapiens, Daudi
Description: SANGER: Inhibition of human Daudi cell growth in a cell viability assay.

EHEB = experiment: cells; type: functional, cell-based; settings: Homo sapiens
Description: SANGER: Inhibition of human EHEB cell growth in a cell viability assay.

GDM-1 = experiment: cells; type: functional, cell-based, Homo sapiens; settings: Homo sapiens, GDM-1; read-out: IC50
Description: SANGER: Inhibition of human GDM-1 cell growth in a cell viability assay.

KMS-12-PE = experiment: cells; type: functional, cell-based, Homo sapiens; settings: Homo sapiens, KMS-12-PE
Description: SANGER: Inhibition of human KMS-12-PE cell growth in a cell viability assay.

MC-CAR = experiment: cells; type: functional, cell-based, Homo sapiens; settings: Homo sapiens, MC-CAR
Description: SANGER: Inhibition of human MC-CAR cell growth in a cell viability assay.

MONO-MAC-6 = experiment: cells; type: functional, cell-based, Homo sapiens; settings: Homo sapiens, MONO-MAC-6
Description: SANGER: Inhibition of human MONO-MAC-6 cell growth in a cell viability assay.

NALM-6 = experiment: cells; type: functional, cell-based, Homo sapiens; settings: Homo sapiens, NALM-6
Description: SANGER: Inhibition of human NALM-6 cell growth in a cell viability assay.

NB1 = experiment: cells; type: functional, cell-based, Homo sapiens; settings: Homo sapiens, NB1
Description: SANGER: Inhibition of human NB1 cell growth in a cell viability assay.

NCI-H1882 = experiment: cells; type: functional, cell-based, Homo sapiens; settings: Homo sapiens, NCI-H1882
Description: SANGER: Inhibition of human NCI-H1882 cell growth in a cell viability assay.

NCI-H524 = experiment: cells; type: functional, cell-based, Homo sapiens; settings: Homo sapiens, NCI-H524
Description: SANGER: Inhibition of human NCI-H524 cell growth in a cell viability assay.

NCI-H64 = experiment: cells; type: functional, cell-based, Homo sapiens; settings: Homo sapiens, NCI-H64
Description: SANGER: Inhibition of human NCI-H64 cell growth in a cell viability assay.

NCI-H889 = experiment: cells; type: functional, cell-based, Homo sapiens; settings: Homo sapiens, NCI-H889
Description: SANGER: Inhibition of human NCI-H889 cell growth in a cell viability assay.

Raji = experiment: cells; type: functional, cell-based, Homo sapiens; settings: Homo sapiens, Raji
Description: SANGER: Inhibition of human Raji cell growth in a cell viability assay.

TE-441-T = experiment: cells; type: functional, cell-based, Homo sapiens; settings: Homo sapiens, TE-441-T
Description: SANGER: Inhibition of human TE-441-T cell growth in a cell viability assay.

CESS = experiment: SANGER: Inhibition of human CESS cell growth in a cell viability assay.; type: functional, cell-based; settings: Homo sapiens, CESS

## O=C(NCCCNc1nc(Nc2cccc(NC(=O)N3CCCC3)c2)ncc1I)c1cccs1 [BX-795]
DoTc2-4510
  IC50: > 5 µM
EFM-19
  IC50: > 5000 nM
GCT
  IC50: > 5 µM
HCC1419
  IC50: > 5000 nM
HT-1376
  IC50: > 5 µM
HTC-C3
  IC50: > 5 µM
HuCCT-1
  IC50: > 5 µM
KP-4
  IC50: > 5 µM
KYSE-180
  IC50: > 5 µM
KYSE-410
  IC50: > 5 µM
KYSE-70 cell line
  IC50: > 5 µM
LCLC-103H cell line
  IC50: 4.07 µM
LCLC-97TM1
  IC50: > 5000 nM
LoVo
  IC50: > 5000 nM
MCF7
  IC50: > 5000 nM
MEL-HO
  IC50: > 5000 nM
NCI-H1755
  IC50: 2540 nM
NCI-H1793
  IC50: > 5 µM
NCI-H2087
  IC50: > 5 µM
NCI-H2228
  IC50: > 5000 nM
NCI-H2342
  IC50: > 5000 nM
OVCAR-3
  IC50: > 5 µM
P12-Ichikawa
  IC50: 1180 nM
PC-3
  IC50: 4.17 µM
SK-LU-1
  IC50: > 5000 nM
SK-MES-1
  IC50: 2960 nM
SK-OV-3
  IC50: > 5 µM
SNU-387
  IC50: 3.81 µM
SW13
  IC50: > 5 µM
A-427
  IC50: 1740 nM
A673
  IC50: > 5 µM
ABC-1
  IC50: 4.81 µM
BT-20
  IC50: > 5000 nM
BXPC-3
  IC50: > 5 µM
CAKI-1
  IC50: 2280 nM
CAL-120
  IC50: 3.89 µM
U-251
  IC50: > 5 µM
UMUC3
  IC50: > 5 µM
UMC-11
  IC50: 2900 nM
YAPC
  IC50: > 5 µM

## CS(=O)(=O)N1CCN(Cc2cc3nc(-c4cccc5[nH]ncc45)nc(N4CCOCC4)c3s2)CC1 [PICTILISIB]
DoTc2-4510
  IC50: > 4 µM
EFM-19
  IC50: 1620 nM
GCT
  IC50: > 4 µM
HCC1419
  IC50: 2210 nM
HT-1376
  IC50: > 4 µM
HTC-C3
  IC50: 3.29 µM
HuCCT-1
  IC50: > 4 µM
KP-4
  IC50: > 4 µM
KYSE-180
  IC50: > 4 µM
KYSE-410
  IC50: > 4 µM
KYSE-70 cell line
  IC50: > 4 µM
LCLC-103H cell line
  IC50: > 4 µM
LCLC-97TM1
  IC50: 2690 nM
LoVo
  IC50: 778 nM
MCF7
  IC50: 899 nM
MEL-HO
  IC50: 2680 nM
NCI-H1755
  IC50: > 4000 nM
NCI-H1793
  IC50: > 4 µM
NCI-H2087
  IC50: > 4 µM
NCI-H2228
  IC50: 1850 nM
NCI-H2342
  IC50: > 4000 nM
OVCAR-3
  IC50: > 4 µM
P12-Ichikawa
  IC50: > 4000 nM
PC-3
  IC50: > 4 µM
SK-LU-1
  IC50: 2450 nM
SK-MES-1
  IC50: 2010 nM
SK-OV-3
  IC50: > 4 µM
SNU-387
  IC50: 3.16 µM
SW13
  IC50: > 4 µM
A-427
  IC50: > 4000 nM
A673
  IC50: > 4 µM
ABC-1
  IC50: > 4 µM
BT-20
  IC50: 1690 nM
BXPC-3
  IC50: > 4 µM
CAKI-1
  IC50: > 4000 nM
CAL-120
  IC50: > 4 µM
U-251
  IC50: > 4 µM
UMUC3
  IC50: > 4 µM
UMC-11
  IC50: > 4000 nM
YAPC
  IC50: > 4 µM

## CC(C)C[C@H](NC(=O)[C@H](Cc1ccccc1)NC(=O)c1cnccn1)B(O)O [BORTEZOMIB]
D-542MG
  IC50: 0.329 nM
DG-75
  IC50: 18.6 nM
DMS-153
  IC50: > 20 nM
Daudi
  IC50: 1.22 nM
EHEB
  IC50: 1.67 nM
GDM-1
  IC50: 6.77 nM
KMS-12-PE
  IC50: > 20 nM
MC-CAR
  IC50: > 20 nM
MONO-MAC-6
  IC50: 3.1 nM
NALM-6
  IC50: 4.49 nM
NB1
  IC50: 6.88 nM
NCI-H1882
  IC50: 1.2 nM
NCI-H524
  IC50: > 20 nM
NCI-H64
  IC50: 2.44 nM
NCI-H889
  IC50: > 20 nM
Raji
  IC50: 4.46 nM
TE-441-T
  IC50: > 20 nM
CESS
  IC50: 0.538 nM

## CC1(C)CCC(c2ccc(Cl)cc2)=C(CN2CCN(c3ccc(C(=O)NS(=O)(=O)c4ccc(N[C@H](CCN5CCOCC5)CSc5ccccc5)c(S(=O)(=O)C(F)(F)F)c4)cc3)CC2)C1 [NAVITOCLAX]
DoTc2-4510
  IC50: > 2 µM
EFM-19
  IC50: > 2000 nM
GCT
  IC50: > 2 µM
HCC1419
  IC50: > 2000 nM
HT-1376
  IC50: > 2 µM
HTC-C3
  IC50: > 2 µM
HuCCT-1
  IC50: > 2 µM
KP-4
  IC50: > 2 µM
KYSE-180
  IC50: > 2 µM
KYSE-410
  IC50: > 2 µM
KYSE-70 cell line
  IC50: > 2 µM
LCLC-103H cell line
  IC50: > 2 µM
LCLC-97TM1
  IC50: > 2000 nM
LoVo
  IC50: > 2000 nM
MCF7
  IC50: > 2000 nM
MEL-HO
  IC50: > 2000 nM
NCI-H1755
  IC50: > 2000 nM
NCI-H1793
  IC50: > 2 µM
NCI-H2087
  IC50: > 2 µM
NCI-H2228
  IC50: > 2000 nM
NCI-H2342
  IC50: 1400 nM
OVCAR-3
  IC50: > 2 µM
P12-Ichikawa
  IC50: 77.8 nM
PC-3
  IC50: > 2 µM
SK-LU-1
  IC50: > 2000 nM
SK-MES-1
  IC50: > 2000 nM
SK-OV-3
  IC50: > 2 µM
SNU-387
  IC50: > 2 µM
SW13
  IC50: > 2 µM
A-427
  IC50: 930 nM
A673
  IC50: > 2 µM
ABC-1
  IC50: > 2 µM
BT-20
  IC50: > 2000 nM
BXPC-3
  IC50: > 2 µM
CAKI-1
  IC50: > 2000 nM
CAL-120
  IC50: 1.16 µM
U-251
  IC50: > 2 µM
UMUC3
  IC50: > 2 µM
UMC-11
  IC50: > 2000 nM
YAPC
  IC50: > 2 µM
